Tests used:
[1] = In vitro cell culture of ^99mTc-EC-DG with or without transition chelators; assay type: cell-based; conditions: kit formulation
Text: It may also be important to include an antioxidant and a transition chelator in the composition to prevent oxidation of the ethylenedicysteine. For example, the antioxidant may be vitamin C (ascorbic acid). However, other antioxidants known to those of ordinary skill in the art, such as tocopherol, pyridoxine, thiamine, or rutin, may also be used. Any transition chelator known to those of ordinary skill in the art may be used in conjunction with the present invention. Examples of transition chelators include glucoheptonate, gluconate, glucarate, citrate, and tartarate.

[2] = system: human lung cancer cells (A549 tumor cell line); assay: Biodistribution in lung tumor-bearing nude mice; assay type: in vivo, athymic nude mice; conditions: for Biodistribution Blood / Biodistribution Brain / Biodistribution Heart / Biodistribution Intestine / Biodistribution Kidney / Biodistribution Liver / Biodistribution Lung / Biodistribution Muscle / Biodistribution Spleen / Biodistribution Stomach / Biodistribution Thyroid / Biodistribution Tumor / Tumor/Blood / Tumor/Lung / Tumor/Muscle: intravenously
Method: Female athymic nude mice (NCr-nu/nu, NCI, Bethasda, Md.) were inoculated with human lung cancer cells (A549 tumor cell line, 3×10^6 cells/mouse, intramuscular) by one author in the mid-dorsal region. After the tumor reached 6 mm, separate biodistribution studies using ^99mTc-EC-DG and 18F-FDG were conducted. Each received ^99mTc-EC-DG or 18F-FDG intravenously (n=3/time point). The injection activity was 1-3 μCi/mouse. The injected mass of ^99mTc-EC-DG was 0.2 mg/rodent.

[3] = system: 13762 tumor cell line mammary tumor; assay: Gamma scintigraphic imaging in Fischer 344 rats with 13762 mammary tumor; assay type: in vivo; conditions: 0.5, 2 and 4 hours after i.v. injection of 300 μCi
Method: Female Fischer 344 rats (250-275 g each) (Harlan, Inc., Indianapolis, Ind.) were inoculated with mammary tumor cells by one author from the 13762 tumor cell line (s.c. 10^6 cells/rat, a tumor cell line specific to Fischer rats). After 8-10 days, tumor volumes of 0.3-0.6 cm were measured. Scintigraphic images were obtained 0.5, 2 and 4 hours after i.v. injection of 300 μCi of ^99mTc-EC or ^99mTc-EC-DG (n=3/agent, total 6 rats). ROI between tumor tissue and muscle (at symmetric site) was used to determine tumor/non-tumor ratios. The smallest tumor volume that could be detected by ^99mTc-EC-DG was 3 mm.

stability with or without transition chelators (gluconate and glucarate) [1]: does not interfere with the stability | Tumor/Blood ([2]; 30 min): 0.499 ± 0.022 | Tumor/Lung ([2]; 30 min): 0.769 ± 0.047 | Tumor/Muscle ([2]; 30 min): 3.352 ± 0.749 | Tumor/Blood ([2]; 2 h): 0.424 ± 0.022 | Tumor/Lung ([2]; 2 h): 0.587 ± 0.046 | Tumor/Muscle ([2]; 2 h): 2.754 ± 0.120 | Tumor/Blood ([2]; 4 h): 0.502 ± 0.120 | Tumor/Lung ([2]; 4 h): 0.640 ± 0.120 | Tumor/Muscle ([2]; 4 h): 2.795 ± 0.982
Compound: O=C(NC1C(O)OC(CO)C(O)C1O)C1C[S][99Tc]23(=[O])[S]CC(C(=O)NC4C(O)OC(CO)C(O)C4O)[N]2CC[N]13 (stereo not drawn) [^99mTc-EC-DG]
Biodistribution Blood ([2]; 30 min): 1.607 ± 0.389 % of injected dose per gram of tissue weight | Biodistribution Brain ([2]; 30 min): 0.058 ± 0.008 % of injected dose per gram of tissue weight | Biodistribution Heart ([2]; 30 min): 0.611 ± 0.193 % of injected dose per gram of tissue weight | Biodistribution Intestine ([2]; 30 min): 0.510 ± 0.093 % of injected dose per gram of tissue weight | Biodistribution Kidney ([2]; 30 min): 6.726 ± 1.842 % of injected dose per gram of tissue weight | Biodistribution Liver ([2]; 30 min): 5.674 ± 2.089 % of injected dose per gram of tissue weight | Biodistribution Lung ([2]; 30 min): 1.048 ± 0.259 % of injected dose per gram of tissue weight | Biodistribution Muscle ([2]; 30 min): 0.264 ± 0.072 % of injected dose per gram of tissue weight | Biodistribution Spleen ([2]; 30 min): 3.240 ± 1.709 % of injected dose per gram of tissue weight | Biodistribution Stomach ([2]; 30 min): 0.540 ± 0.113 % of injected dose per gram of tissue weight | Biodistribution Thyroid ([2]; 30 min): 0.929 ± 0.212 % of injected dose per gram of tissue weight | Biodistribution Tumor ([2]; 30 min): 0.787 ± 0.163 % of injected dose per gram of tissue weight | Biodistribution Blood ([2]; 2 h): 0.977 ± 0.267 % of injected dose per gram of tissue weight | Biodistribution Brain ([2]; 2 h): 0.042 ± 0.006 % of injected dose per gram of tissue weight | Biodistribution Heart ([2]; 2 h): 0.336 ± 0.080 % of injected dose per gram of tissue weight | Biodistribution Intestine ([2]; 2 h): 0.417 ± 0.110 % of injected dose per gram of tissue weight | Biodistribution Kidney ([2]; 2 h): 5.687 ± 1.540 % of injected dose per gram of tissue weight | Biodistribution Liver ([2]; 2 h): 5.807 ± 1.708 % of injected dose per gram of tissue weight | Biodistribution Lung ([2]; 2 h): 0.721 ± 0.210 % of injected dose per gram of tissue weight | Biodistribution Muscle ([2]; 2 h): 0.148 ± 0.039 % of injected dose per gram of tissue weight | Biodistribution Spleen ([2]; 2 h): 4.205 ± 1.374 % of injected dose per gram of tissue weight | Biodistribution Stomach ([2]; 2 h): 0.439 ± 0.138 % of injected dose per gram of tissue weight | Biodistribution Thyroid ([2]; 2 h): 0.665 ± 0.207 % of injected dose per gram of tissue weight | Biodistribution Tumor ([2]; 2 h): 0.415 ± 0.123 % of injected dose per gram of tissue weight | Biodistribution Blood ([2]; 4 h): 0.787 ± 0.152 % of injected dose per gram of tissue weight | Biodistribution Brain ([2]; 4 h): 0.042 ± 0.006 % of injected dose per gram of tissue weight | Biodistribution Heart ([2]; 4 h): 0.318 ± 0.071 % of injected dose per gram of tissue weight | Biodistribution Intestine ([2]; 4 h): 0.374 ± 0.073 % of injected dose per gram of tissue weight | Biodistribution Kidney ([2]; 4 h): 4.318 ± 0.890 % of injected dose per gram of tissue weight | Biodistribution Liver ([2]; 4 h): 6.656 ± 1.786 % of injected dose per gram of tissue weight | Biodistribution Lung ([2]; 4 h): 0.606 ± 0.128 % of injected dose per gram of tissue weight | Biodistribution Muscle ([2]; 4 h): 0.147 ± 0.022 % of injected dose per gram of tissue weight | Biodistribution Spleen ([2]; 4 h): 5.933 ± 3.194 % of injected dose per gram of tissue weight | Biodistribution Stomach ([2]; 4 h): 0.541 ± 0.119 % of injected dose per gram of tissue weight | Biodistribution Thyroid ([2]; 4 h): 0.692 ± 0.119 % of injected dose per gram of tissue weight | Biodistribution Tumor ([2]; 4 h): 0.414 ± 0.161 % of injected dose per gram of tissue weight | tumor/muscle and tumor/brain ratios, ^99mTc-EC-DG versus 18F-FDG ([2]; as a function of time): higher tumor/muscle and tumor/brain ratios | organs visualized [3]: Heart, kidneys, liver, and bladder were visualized

From patent US20040166058A1, “Ethylenedicysteine (EC)-drug conjugates, compositions and methods for tissue specific disease imaging” (Board of Regents, The University of Texas System, priority 2002, published 2004)
